Values of other authors in US9408867B2, “Antifungal compositions for the treatment of skin and nails” (Veloce BioPharma, LLC, priority 2011, dated 2016).
Like-named read-outs stand apart in the source and are kept apart here.

What was measured:
[1] = human skin in vitro
[2] = 50% solution of DMSO in water

Q: What does the source list for COC1=CC(=O)C[C@@H](C)[C@]12Oc1c(Cl)c(OC)cc(OC)c1C2=O [griseofulvin]?
A: ratio of penetration ([1]; dissolved in DMSO): 60; ratio of penetration ([1]; dissolved in alcohol): 3; ratio of penetration ([1]; dissolved in benzene): 1; ratio of penetration ([1]; dissolved in dimethylacetamide): 40; ratio of penetration ([1]; dissolved in dimethylformamide): 7

Q: With C[C@]12CCC(=O)C=C1CC[C@@H]1[C@@H]2[C@@H](O)C[C@@]2(C)[C@H]1CC[C@]2(O)C(=O)CO [hydrocortisone] as the compound, how does the rate of penetration [2] read?
A: The rate of penetration was “markedly enhanced”.
